Measurements published in patent US7465738B2, “Compounds useful as promoters of SMN2” (Vertex Pharmaceuticals Incorporated, priority 2003, dated 2008).

What follows are compounds tested on SMN2 promoter (assay: SMN2 promoter-β-lactamase (BLA) assay in NSC-34 cells). Conditions: 15 NSC-34 SMN2-promoter-BLA clones with low BLA activity.
Assay type: cell-based, mouse
Text: Compounds were screened for their ability to increase SMN2 gene transcription. In general the screening method of the invention involves the use of an SMN2 promoter-β-lactamase (BLA) assay in NSC-34 cells. […] This construct was transfected into the NSC-34 cells and a stable pool of SMN2-promoter-BLA cells was generated. […] Optimized protocols are presented in the procedures below. […] Subculture Protocol for and the […]-Bla Cell Line (#5.3) and the SMN2 Promoter-Bla Cell Line (#11). […] Cells were kept at a density between 50,000 and 500,000/ml and were fed every three days with DMEM 5% FCS and incubated at 37° C., 5% CO2 and 90% humidity. • b. Cells were then plated at low density (50,000 cells/ml). • c. […] Cells were fed by manually pipetting the cells, and passaging the cells 1 to 10 to a new flask. […] Standard Assay Protocol #1 for SMN2 Promoter Assays in 96-Well Plates: • e. Cells were washed twice with cold PBS by spinning down and resuspending at 250,000 cells/ml. • f. Cells were resuspended in DMEM 0% FCS at a density of 500,000 cells/ml. • g. Cells were then dispensed 100 μl cells per well of a 96-well, black wall, clear bottom assay plate (Corning Costar, Cat. # 3904). Plate can be pre-formatted with test compounds. • h. […] Cells were incubated for 1 hour in the dark at room temperature. • 6×CCF2-AM Staining Solution: • 60 μl of Sol B • 6 μl of CCF2-AM (1 mM) • 12 μl of Probenecid (1 M, Sigma, Cat # 8761) • 1 μl of Sol C • j. Assay plates were read on a fluorimeter (for example, the Cytofluor 4000 from Perceptive Biosystems) using the following two settings: 460/40 nm emission with 395/25 nm excitation, and 530/25 nm emission with 395/25 nm excitation. • k. […] Standard Assay Protocol #2 for SMN2 Promoter Assays in 96-Well Plates: • l. Cells were washed twice with cold PBS by spinning down and resuspending at 250,000 cells/ml. • m. Cells were then resuspended in DMEM 1% FCS Charcoal Dextran-treated (Hyclone, Cat # SH30038.05) at a density of […]. • n. Cells were then incubated for 24 hours at 37° C. • o. 100 μl cells per well were then dispensed in a 96-well, black wall, clear bottom assay plate (Corning Costar, Cat. # 3904). Plate can be pre-formatted with test compounds. • p. […] Cells were incubated for one hour in the dark at room temperature. • 6×CCF2-AM Staining Solution: • 60 μl of Sol B • 6 μl of CCF2-AM (1 mM) • 12 μl of Probenecid (1 M, Sigma, Cat# 8761) • 1 μl of SolC • r. Assay plates were read on a fluorimeter (for example, the Cytofluor 4000 from Perceptive Biosystems) using the following two settings: 460/40 nm emission with 395/25 nm excitation, and 530/25 nm emission with 395/25 nm excitation. • s.

| SMILES | changes in BLA activity after treatment |
| --- | --- |
| CC(C)Cn1c(=O)n(C)c(=O)c2[nH]cnc21 [IBMX, reference compound] | none showed changes in BLA activity |

Same assay, conditions: Mus musculus; SMN2 promoter BLA assay, NSC-34 cells, 96-well plates

| SMILES | EC50 |
| --- | --- |
| Nc1nc(N)c2c(Sc3ccc(Cl)cc3)cccc2n1 [Compound I-2] | 530 nM |
| Nc1nc(N)c2c(Oc3ccc(F)cc3)cccc2n1 [Compound I-3] | 150 nM |
| Nc1nc(N)c2c(Oc3ccccc3)cccc2n1 [Compound I-5] | 250 nM |

Now from value to compound:

| EC50 | SMILES |
| --- | --- |
| 600 nM | CCOc1cccc2nc(N)nc(N)c12 [Compound I-6] |
| 6800 nM | CN(C)/C=C/c1c(C=O)c2cc([N+](=O)[O-])ccc2n1C [Compound V-1, 2-((E)-2-(dimethylamino)vinyl)-1-methyl-5-nitro-1H-indole-3-carbaldehyde] |
| 10000 nM | O=C1C(=O)N(C(=O)NC2CCCCC2)c2ccc(Br)cc21 [VI-1] |
| 3000 nM | OCCNCCCOc1cccc(Cl)c1Cl [VII-1] |
| 9000 nM | CCCN(Cc1ccc([N+](=O)[O-])cc1)c1nc(O)nc(NC2CCCC2)n1 [VIII-1] |

Same assay, conditions: clone SMN2BLAClone11

| SMILES | increase in BLA expression upon stimulation |
| --- | --- |
| CCCC(=O)[O-].[Na+] [sodium butyrate, reference compound] | 1.8 fold |
